From patent US20250073255A1, “USE OF FA-TYPE LIPID COMPOUNDS IN PREPARATION OF NUCLEIC ACID DELIVERY REAGENT AND RELATED PRODUCT” (BEIJING BAISHIKANG PHARMACEUTICAL TECHNOLOGY (BSJPHARMA) …, priority 2021, published 2025)

System: C57BL/6 male mice
Experiment: In vivo delivery study of lipid nucleic acid mixture (oral gavage, RT-qPCR of PGY-sRNA-26 in tissues)
Parameters: species or system mouse
Details: for oral delivery of single-stranded sRNA nucleic acids into mouse blood / oral delivery of single-stranded sRNA nucleic acids into mouse femur / oral delivery of single-stranded sRNA nucleic acids into mouse stomach tissue / oral delivery of single-stranded sRNA nucleic acids into mouse brain tissue / oral delivery of single-stranded sRNA nucleic acids into mouse heart tissue / oral delivery of single-stranded sRNA nucleic acids into mouse intestinal tissue / oral delivery of single-stranded sRNA nucleic acids into mouse kidney tissue / oral delivery of single-stranded sRNA nucleic acids into mouse liver tissue / oral delivery of single-stranded sRNA nucleic acids into mouse lung tissue / oral delivery of single-stranded sRNA nucleic acids into mouse spleen tissue / oral delivery of single-stranded sRNA nucleic acids into mouse pancreatic tissue: 100 μg lipid:10 nmol PGY-sRNA-26, sampled after 12 hours; for overall delivery efficacy: delivering nucleic acids into each tissue and blood tested: 100 μg lipid:10 nmol PGY-sRNA-26, all tissues and blood tested; for oral delivery of single-stranded sRNA nucleic acids into mouse heart tissue: vs free uptake group; for oral delivery of single-stranded sRNA nucleic acids into mouse intestinal tissue: intestine; for oral delivery of single-stranded sRNA nucleic acids into mouse pancreatic tissue: pancreas
How it was run: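 Lipid (100 μg) and 10 nmol 3'-methylated single-stranded PGY-sRNA-26 were heated at 90 °C for 15 min, then given by oral gavage to mice fasted 12 h. Controls were saline and free sRNA. Blood and tissues were taken at 12 h, and levels were measured by stem-loop RT-qPCR relative to U6.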

| Compound | oral delivery of single-stranded sRNA nucleic acids into mouse blood | oral delivery of single-stranded sRNA nucleic acids into mouse femur | oral delivery of single-stranded sRNA nucleic acids into mouse stomach tissue | overall delivery efficacy: delivering nucleic acids into each tissue and blood tested | oral delivery of single-stranded sRNA nucleic acids into mouse brain tissue | oral delivery of single-stranded sRNA nucleic acids into mouse heart tissue | oral delivery of single-stranded sRNA nucleic acids into mouse intestinal tissue | oral delivery of single-stranded sRNA nucleic acids into mouse kidney tissue | oral delivery of single-stranded sRNA nucleic acids into mouse liver tissue | oral delivery of single-stranded sRNA nucleic acids into mouse lung tissue | oral delivery of single-stranded sRNA nucleic acids into mouse spleen tissue | oral delivery of single-stranded sRNA nucleic acids into mouse pancreatic tissue |
| --- | --- | --- | --- | --- | --- | --- | --- | --- | --- | --- | --- | --- |
| CCCCCCCCCCCCCCC(=O)O [Lipid 605, pentadecanoic acid] | can effectively orally deliver | can effectively orally deliver | can effectively orally deliver | – | – | – | – | – | – | – | – | – |
| CCCCCCCCC(C)=O [Lipid 604, decan-2-one] | can effectively orally deliver | can effectively orally deliver | can effectively orally deliver | best delivery efficacy | can effectively orally deliver | can effectively orally deliver | can effectively orally deliver | can effectively orally deliver | can effectively orally deliver | can effectively orally deliver | can effectively orally deliver | – |
| CCCCC/C=C\C/C=C\C/C=C\C/C=C\CCCC(=O)NCCCCCO [Lipid 807, (5Z,8Z,11Z,14Z)-N-(5-hydroxypentyl)icosa-5,8,11,14-tetraenamide] | can effectively orally deliver | can effectively orally deliver | can effectively orally deliver | – | can effectively orally deliver | can effectively orally deliver | can effectively orally deliver | can effectively orally deliver | can effectively orally deliver | can effectively orally deliver | can effectively orally deliver | can effectively orally deliver |
| CCCCCC/C=C\CCCCCCCC(=O)OCCCCCCCCCCCCCCCCC [Lipid 818, heptadecyl (Z)-hexadec-9-enoate] | can effectively orally deliver | can effectively orally deliver | can effectively orally deliver | – | can effectively orally deliver | can effectively orally deliver | can effectively orally deliver | can effectively orally deliver | can effectively orally deliver | can effectively orally deliver | can effectively orally deliver | can effectively orally deliver |
| CC/C=C\CC1C(=O)CCC1CC(=O)O (stereo not drawn) [Lipid 527] | can effectively orally deliver | can effectively orally deliver | can effectively orally deliver | best delivery efficacy | can effectively orally deliver | can effectively orally deliver | can effectively orally deliver | can effectively orally deliver | can effectively orally deliver | can effectively orally deliver | can effectively orally deliver | – |
| CCCCC/C=C\C/C=C\CCCCCCCC(=O)OC(CC)C(C)CCC (stereo not drawn) [Lipid 828, 4-methylheptan-3-yl (9Z,12Z)-octadeca-9,12-dienoate] | can effectively orally deliver | can effectively orally deliver | can effectively orally deliver | – | can effectively orally deliver | can effectively orally deliver | can effectively orally deliver | can effectively orally deliver | can effectively orally deliver | can effectively orally deliver | can effectively orally deliver | can effectively orally deliver |
| CCCCCCCCCCCCCCCCCC(=O)N[C@@H](Cc1ccccc1)C(=O)O [Lipid 830, (2S)-2-(octadecanoylamino)-3-phenylpropanoic acid] | can effectively orally deliver | can effectively orally deliver | can effectively orally deliver | – | can effectively orally deliver | can effectively orally deliver | can effectively orally deliver | can effectively orally deliver | can effectively orally deliver | can effectively orally deliver | can effectively orally deliver | can effectively orally deliver |
| CC(C(=O)O)C(=O)O [Lipid 596, 2-methylpropanedioic acid] | can effectively orally deliver | can effectively orally deliver | can effectively orally deliver | best delivery efficacy | can effectively orally deliver | can effectively orally deliver | can effectively orally deliver | can effectively orally deliver | can effectively orally deliver | can effectively orally deliver | can effectively orally deliver | – |
| O=C(O)CCC(=O)O [Lipid 628, butanedioic acid] | can effectively orally deliver | can effectively orally deliver | can effectively orally deliver | best delivery efficacy | can effectively orally deliver | can effectively orally deliver | can effectively orally deliver | can effectively orally deliver | can effectively orally deliver | can effectively orally deliver | can effectively orally deliver | – |
| CCCCCCCCCCCCCC=O [Lipid 594] | can effectively orally deliver | can effectively orally deliver | can effectively orally deliver | best delivery efficacy | can effectively orally deliver | can effectively orally deliver | can effectively orally deliver | can effectively orally deliver | can effectively orally deliver | can effectively orally deliver | can effectively orally deliver | – |
